Results reported in patent publication US20240218073A1, “IMMUNOMODULATORY ANTI-CD73 ANTIBODIES AND USES THEREOF” (Corvus Pharmaceuticals, Inc., priority 2019, published 2024).

What was measured:
B lymphocytes = experiment: B cell activation and maturation markers by flow cytometry in vitro; format: cell-based, human
Experimental: FIG. 6 are bar graphs showing CPI-006 directly activates B lymphocytes. Purified B cells were incubated overnight with 10 μg/mL human IgG1 isotype control or CPI-006 or anti-IgM microbeads, a positive control for BCR stimulation. Expression of activation markers CD69, CD83, CD86, CD25 or MHC-II was measured by flow cytometry. Mean fluorescence intensity (MFI) was determined for each activation marker and was normalized to the untreated condition for each donor. The figure legend from top to bottom is representative of each group of four bars from left to right. (N=3-5 donors).
FIG. 7 illustrates expression of CD69 on B cells (CD19+CD3−) as measured by flow cytometry and reported by MFI. Human PBMCs were incubated overnight with 10 μg/mL CPI-006 with or without NECA over a range of concentrations or 10 μM APCP. Expression of CD69 on B cells (CD19+CD3−) was measured by flow cytometry and MFI is reported. Error bars represent mean±SD. *p<0.05, **p<0.01 as determined by t-test.
Human B cells were stimulated in vitro with CPI-006 or CPX-016 (1 ug/ml) or an isotype control for 3 days. IgD and CD27 expression were evaluated by flow cytometry. The mean fluorescence intensity (MFI) of each marker was determined in FlowJo and normalized to CPX-016. N=3 donors shown. For each group of two bars, left bar represents treatment with […] and right bar represents treatment with CPX-006.
FIG. 13A: Purified B cells from 3-5 healthy donors were incubated overnight with human IgG1 isotype control or CPI-006 (10 μg/mL) or anti-IgM microbeads, a positive control for BCR stimulation. Expression of activation markers CD69, CD83, CD86, or MHC-II was measured by flow cytometry. […] Mean fluorescence intensity (MFI) was determined for each marker and was normalized to the untreated or isotype control for each donor. […] Expression of CD69 (MFI) was measured by flow cytometry. […] CD69 and CD73 were measured on B cells by flow cytometry. […] Expression of CD69 on B cells (CD19^POSCD3^NEG) was measured by flow cytometry. […]

[1] = system: circulating CD73^POS B cells; experiment: Phase 1 trial in cancer patients: peripheral blood immunophenotyping by flow cytometry; format: in vivo, human; conditions: ciforadenant monotherapy
cellular CD73 = biological target: T1, cellular CD73 (Homo sapiens, UniProt P21589); experiment: CD73 catalytic activity on MDA-MB-231 cells (phosphate released from AMP); conditions: 250 μM AMP, baseline from CRISPR CD73 knockout cells and 1 mM APCP
T1 sequence (P21589 27-549): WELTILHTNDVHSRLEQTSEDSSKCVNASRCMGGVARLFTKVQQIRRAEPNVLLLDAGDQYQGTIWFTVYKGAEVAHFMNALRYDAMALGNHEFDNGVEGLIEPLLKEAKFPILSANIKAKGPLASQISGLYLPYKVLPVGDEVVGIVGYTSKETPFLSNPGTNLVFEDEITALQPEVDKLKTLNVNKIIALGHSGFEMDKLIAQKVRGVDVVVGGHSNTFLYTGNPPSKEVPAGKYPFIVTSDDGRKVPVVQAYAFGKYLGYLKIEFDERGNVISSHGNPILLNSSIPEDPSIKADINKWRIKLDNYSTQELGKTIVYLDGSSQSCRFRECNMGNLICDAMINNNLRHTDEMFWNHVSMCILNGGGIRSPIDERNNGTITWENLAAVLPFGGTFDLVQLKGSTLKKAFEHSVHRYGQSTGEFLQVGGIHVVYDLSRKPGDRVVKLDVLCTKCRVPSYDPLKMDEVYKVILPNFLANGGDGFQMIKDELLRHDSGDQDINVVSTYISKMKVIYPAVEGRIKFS

T cells = experiment: T cell proliferation of anti-CD3/anti-CD28 activated PBMCs in the presence of AMP; format: cell-based, human; conditions: 500 nM antibody, 13 donors
Experimental: FIG. 12A: CD73 catalytic activity was measured with MDA-MB-231 cells or MDA-MB-231 CD73 CRISPR cells in the presence of CPI-006, oleclumab, or 1 mM APCP by adding 250 μM AMP and measuring phosphate levels in the cell culture supernatant. FIG. 12B: Human PBMCs were incubated with AMP in the presence of CPI-006, oleclumab, or isotype control antibody at the saturating concentration of 300 nM. After 4 hours of incubation, the AMP remaining in the supernatant was quantified using the CellTiterGlo assay as described in the Methods. Percentage of inhibition was plotted. Data represent 9 individual donors and error bars represent mean±SD. ****p<0.0001 as determined by t-test. FIG. 12C: Human PBMCs were activated with anti-CD3/anti-CD28 in the presence of AMP and a range of doses of CPI-006, oleclumab, or isotype control antibody. T cell proliferation was assessed by flow cytometry. T cell proliferation for 13 donors treated with 500 nM CPI-006 or oleclumab or 890 nM isotype control. Error bars represent mean±SD. *p<0.05, ***p<0.001, and ****p<0.0001 as determined by t-test. […] After 4 days in culture, IFNg levels in the supernatant were measured by AlphaLISA (Perkin Elmer). […] Error bars represent mean±SD. *p<0.05 and **p<0.01 as determined by t-test. […]

[2] = biological target: T2, CD73 expressed on primary human peripheral blood mononuclear cells (Homo sapiens, UniProt P21589); experiment: CD73 enzymatic activity on primary human PBMCs (AMP remaining, CellTiterGlo); conditions: 300 nM antibody, 4 hours incubation with AMP, 9 donors
T2 sequence (P21589 27-549): T1 sequence (P21589 27-549)

human CD73 = biological target: T3, human CD73 (human, UniProt P21589 27-549); experiment: bio-layer interferometry (Octet HTX, 25 C; antibody on anti-human IgG Fc capture sensors, antigen in solution from 300 nM, 1:1 model)
T3 construct: also called CD73 antigen; 5'-nucleotidase
T3 sequence (looked up): T1 sequence (P21589 27-549)

CCNC(=O)[C@H]1O[C@@H](n2cnc3c(N)ncnc32)[C@H](O)[C@@H]1O [NECA, 5′-(N-ethylcarboxamido)adenosine, reference compound]
effect on induction of activation markers by CPI-006 (B lymphocytes; human PBMCs, CPI-006 10 μg/mL overnight, NECA over a range of concentrations): did not block the induction of activation markers by CPI-006

Cc1ccc(-c2nc(N)nc3c2nnn3Cc2cccc(CO[C@H]3CCOC3)n2)o1 [ciforadenant]
B cell numbers or immunophenotype [1]: no changes in B cell numbers or immunophenotype

oleclumab: another anti-CD73 antibody that binds a non-overlapping epitope; expressed as human lambda/IgG1-TM antibody
B cell activation (CD69 expression) by other anti-CD73 antibodies (B lymphocytes; antibodies that do not cross-block CPI-006): fail to induce activation | CD73 activity (free phosphate levels generated upon conversion of AMP to adenosine) (cellular CD73): only partially reduced CD73 activity | T cell proliferation (T cells): restored T cell proliferation in a subset of donors but did not reach the magnitude of the CPI-006 response | enzymatic activity of CD73 on PBMCs [2]: partial effect on enzymatic activity

B1: CPI-006 (antibody, human IgG1, kappa, N297Q, V domains shown)
VH: QVQLVQSGAEVEKPGASVKVSCKASGYTFTSYWITWVRQAPGQGLEWMGDIYPGSGNTNYNEKFKTRVTITADKSTSTAYMELSSLRSEDTAVYYCAKEGGLTTEDYALDYWGQGTLVTVSS
VL: EIVLTQSPATLSLSPGERATLSCRASKNVSTSGYSYMHWYQQKPGQAPRLLIYLASNLESGIPPRFSGSGYGTDFTLTINNIESEDAAYYFCQHSRELPFTFGQGTKVEIKR
Kd (human CD73): 0.2 nM

B2: CPI-006 immunoglobulin Fab fragments: Fab fragments of CPI-006 prepared using the Pierce Fab Preparation kit (antibody, chains of the INN, looked up, V domains shown)
VH: B1 VH
VL: EIVLTQSPATLSLSPGERATLSCRASKNVSTSGYSYMHWYQQKPGQAPRLLIYLASNLESGIPPRFSGSGYGTDFTLTINNIESEDAAYYFCQHSRELPFTFGQGTKVEIK
modifications: Fab
notes: Fab fragments of CPI-006 prepared using the Pierce Fab Preparation kit
expression levels of CD69 with Fab fragments (B lymphocytes; purified B cells, overnight, equimolar to 10 μg/mL CPI-006): minimal effect on expression levels of CD69
